# Experiment: toxicity in mice: body weight and observations after IP administration
# Assay type: in vivo
# Details: for body weight / body weight change (% wt/wt): female mice
# How it was run: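 Mice (female where stated) received the test compound intraperitoneally on day 1, dissolved in 20% hydroxypropylcyclodextrane at an administration volume of 10 ml/kg. Toxicity was assessed from body weight, body weight change (% wt/wt) and observations of the animals after administration.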
structure (smiles),measurement,setting,value
"CC(C)c1ccc(-c2cn3nc(N4CCC(CN5CCN(CCO)CC5)CC4)sc3n2)cc1 [Compound E266, 2-(4-{1-[6-(4-isopropyl-phenyl)-imidazo[2,1-b][1,3,4]thiadiazol-2-yl]-piperidin-4-ylmethyl}-piperazin-1-yl)-ethanol]",body weight,"100 mg/kg IP, day 1",36.1 g
same,body weight change (% wt/wt),"100 mg/kg IP, day 1",0%
same,body weight,"100 mg/kg IP, day 2",35.7 g
same,body weight change (% wt/wt),"100 mg/kg IP, day 2",−1.1%
same,body weight,"100 mg/kg IP, day 3",36.1 g
same,body weight change (% wt/wt),"100 mg/kg IP, day 3",0.0%
same,body weight,"100 mg/kg IP, day 4",35.2 g
same,body weight change (% wt/wt),"100 mg/kg IP, day 4",−2.5%
same,body weight,"100 mg/kg IP, day 5",34 g
same,body weight change (% wt/wt),"100 mg/kg IP, day 5",−5.8%
same,body weight,"100 mg/kg IP, day 6",33.9 g
same,body weight change (% wt/wt),"100 mg/kg IP, day 6",−6.1%
same,body weight,"100 mg/kg IP, day 7",34 g
same,body weight change (% wt/wt),"100 mg/kg IP, day 7",−5.8%
same,body weight,"100 mg/kg IP, day 8",33.6 g
same,body weight change (% wt/wt),"100 mg/kg IP, day 8",−6.9%
same,body weight,"100 mg/kg IP, day 9",32.4 g
same,body weight change (% wt/wt),"100 mg/kg IP, day 9",−10.2%
same,body weight,"100 mg/kg IP, day 10",33.5 g
same,body weight change (% wt/wt),"100 mg/kg IP, day 10",−7.2%
same,body weight,"100 mg/kg IP, day 11",32.6 g
same,body weight change (% wt/wt),"100 mg/kg IP, day 11",−9.7%
same,body weight,"100 mg/kg IP, day 12",33.4 g
same,body weight change (% wt/wt),"100 mg/kg IP, day 12",−7.5%
same,body weight,"100 mg/kg IP, day 13",32.8 g
same,body weight change (% wt/wt),"100 mg/kg IP, day 13",−9.1%
same,body weight,"100 mg/kg IP, day 14",32.2 g
same,body weight change (% wt/wt),"100 mg/kg IP, day 14",−10.8%
same,body weight,"100 mg/kg IP, day 15",32.4 g
same,body weight change (% wt/wt),"100 mg/kg IP, day 15",−10.2%
same,body weight,"200 mg/kg IP, day 1",31.5 g
same,body weight change (% wt/wt),"200 mg/kg IP, day 1",0%
same,body weight,"200 mg/kg IP, day 2",30.5 g
same,body weight change (% wt/wt),"200 mg/kg IP, day 2",−3.2%
same,body weight,"200 mg/kg IP, day 3",30.8 g
same,body weight change (% wt/wt),"200 mg/kg IP, day 3",−2.2%
same,body weight,"200 mg/kg IP, day 4",30.6 g
same,body weight change (% wt/wt),"200 mg/kg IP, day 4",−2.9%
same,body weight,"200 mg/kg IP, day 5",30.6 g
same,body weight change (% wt/wt),"200 mg/kg IP, day 5",−2.9%
same,body weight,"200 mg/kg IP, day 6",30.9 g
same,body weight change (% wt/wt),"200 mg/kg IP, day 6",−1.9%
same,body weight,"200 mg/kg IP, day 7",31 g
same,body weight change (% wt/wt),"200 mg/kg IP, day 7",−1.6%
same,body weight,"200 mg/kg IP, day 8",31.1 g
same,body weight change (% wt/wt),"200 mg/kg IP, day 8",−1.3%
same,body weight,"200 mg/kg IP, day 9",30.6 g
same,body weight change (% wt/wt),"200 mg/kg IP, day 9",−2.9%
same,body weight,"200 mg/kg IP, day 10",31.2 g
same,body weight change (% wt/wt),"200 mg/kg IP, day 10",−1.0%
same,body weight,"200 mg/kg IP, day 11",29.9 g
same,body weight change (% wt/wt),"200 mg/kg IP, day 11",−5.1%
same,body weight,"200 mg/kg IP, day 12",30.6 g
same,body weight change (% wt/wt),"200 mg/kg IP, day 12",−2.9%
same,body weight,"200 mg/kg IP, day 13",30.6 g
same,body weight change (% wt/wt),"200 mg/kg IP, day 13",−2.9%
same,body weight,"200 mg/kg IP, day 14",30.8 g
same,body weight change (% wt/wt),"200 mg/kg IP, day 14",−2.2%
same,body weight,"200 mg/kg IP, day 15",30.5 g
same,body weight change (% wt/wt),"200 mg/kg IP, day 15",−3.2%
same,body weight,"400 mg/kg IP, day 1",31.1 g
same,body weight change (% wt/wt),"400 mg/kg IP, day 1",0%
same,body weight,"400 mg/kg IP, day 2",30.5 g
same,body weight change (% wt/wt),"400 mg/kg IP, day 2",−1.9%
same,body weight,"400 mg/kg IP, day 3",29.6 g
same,body weight change (% wt/wt),"400 mg/kg IP, day 3",−4.8%
same,body weight,"400 mg/kg IP, day 4",28.6 g
same,body weight change (% wt/wt),"400 mg/kg IP, day 4",−8.0%
same,body weight,"400 mg/kg IP, day 5",28.4 g
same,body weight change (% wt/wt),"400 mg/kg IP, day 5",−8.7%
same,body weight,"400 mg/kg IP, day 6",28.5 g
same,body weight change (% wt/wt),"400 mg/kg IP, day 6",−8.4%
same,body weight,"400 mg/kg IP, day 7",28.4 g
same,body weight change (% wt/wt),"400 mg/kg IP, day 7",−8.7%
same,body weight,"400 mg/kg IP, day 8",28.7 g
same,body weight change (% wt/wt),"400 mg/kg IP, day 8",−7.7%
same,body weight,"400 mg/kg IP, day 9",29 g
same,body weight change (% wt/wt),"400 mg/kg IP, day 9",−6.8%
same,body weight,"400 mg/kg IP, day 10",29.3 g
same,body weight change (% wt/wt),"400 mg/kg IP, day 10",−5.8%
same,body weight,"400 mg/kg IP, day 11",29 g
same,body weight change (% wt/wt),"400 mg/kg IP, day 11",−6.8%
same,body weight,"400 mg/kg IP, day 12",29.4 g
same,body weight change (% wt/wt),"400 mg/kg IP, day 12",−5.5%
same,body weight,"400 mg/kg IP, day 13",29.8 g
same,body weight change (% wt/wt),"400 mg/kg IP, day 13",−4.2%
same,body weight,"400 mg/kg IP, day 14",29.8 g
same,body weight change (% wt/wt),"400 mg/kg IP, day 14",4.2%
same,body weight,"400 mg/kg IP, day 15",29.2 g
same,body weight change (% wt/wt),"400 mg/kg IP, day 15",−6.1%
same,toxicity,"male and female mice, 100-400 mg/kg IP in 20% hydroxypropylcyclodextrane, 10 ml/kg",not toxic

# From US12084459B2, “2-(4-{1-[6-(4-isopropyl-phenyl)-imidazo[2,1-b][1,3,4]thiadiazol-2-yl]-piperidin-4-ylmethyl}-piperazin-1-yl)-ethanol and use thereof” (Urifer Ltd., priority 2020, dated 2024)
